In ChEMBL document CHEMBL1128993, “Optimization of retro-thiorphan for inhibition of endothelin converting enzyme” (Bioorg Med Chem Lett, 1996):

tested on: Endothelin-converting enzyme 1 (Sus scrofa); assay: Inhibition of endothelin-converting enzyme 1 partially purified from porcine primary aortic endothelial cells at 20 uM; conditions: Endothelial cell

| Compound | inhibition |
| --- | --- |
| O=C(Cc1ccc(-c2ccccc2)cc1)N[C@@H](CS)Cc1cccnc1 | 91% |
| O=C(N[C@@H](CS)Cc1ccccc1)c1ccccn1 | 52% |
| O=C(N[C@@H](CS)Cc1ccc(-c2ccccc2)cc1)c1cccnc1 | 39% |
| CC(C)[C@H](CS)NC(=O)c1cccnc1 | 30% |
| O=C(CCc1cccnc1)N[C@@H](CS)Cc1ccccc1 | 66% |
| O=C(Cc1ccccc1)N[C@@H](CS)Cc1ccc(O)cc1 | 56% |
| O=C(CCc1ccccc1Cl)N[C@@H](CS)Cc1ccccc1 | 57% |
| O=C(Cc1ccc(OCc2ccccc2)cc1)N[C@@H](CS)Cc1ccc2ccccc2c1 | 10% |
| O=C(CCC(C(=O)O)c1ccccc1)N[C@@H](CS)Cc1ccccc1 (some centres undefined) | 48% |
| O=C(Cc1cccnc1)N[C@@H](CS)Cc1ccccc1 | 58% |
| CN(C(=O)Cc1ccccc1)[C@@H](CS)Cc1ccccc1 | 24% |
| O=C(N[C@@H](CS)Cc1ccccc1)c1cccs1 | 67% |
| O=C(N[C@@H](CS)Cc1ccccc1)c1ccco1 | 54% |
| O=C(N[C@@H](CS)Cc1ccccc1)/C(=C/c1ccccc1)c1ccccc1 | 23% |
| O=C(N[C@@H](CS)Cc1ccccc1)c1ccncc1 | 48% |
| O=C(Cc1ccc(-c2ccccc2)cc1)N[C@@H](CS)CCc1ccccc1 | 16% |
| O=C(Cc1ccc(OCc2ccccc2)cc1)N[C@@H](CCS)Cc1c[nH]c2ccccc12 | > 20% |

| Compound | inhibition |
| --- | --- |
| O=C(N[C@@H](CS)Cc1ccccc1)C1Cc2ccccc2CN1 (some centres undefined) | 33% |
| O=C(Cc1ccc(OCc2ccccc2)cc1)N[C@@H](CS)Cc1ccc(-c2cccc3ccccc23)cc1 | 0% |
| O=C(Cc1ccc(-c2ccccc2)cc1)N[C@@H](CS)Cc1ccccc1 | 74% |
| O=C(N[C@H](Cc1c[nH]c2ccccc12)C(=O)NCCS)c1cccnc1 | > 20% |
| Cn1cc(C[C@H](CS)NC(=O)Cc2ccc(-c3ccccc3)cc2)c2ccccc21 | 68% |
| O=C(N[C@@H](CS)Cc1ccccc1)c1cc2ccccc2cn1 | 76% |
| O=C(N[C@@H](CS)Cc1ccccc1)c1c[nH]c2ccccc12 | 67% |
| O=C(Cc1ccc(OCc2ccccc2)cc1)N[C@@H](CS)Cc1cccc2ccccc12 | 51% |
| O=C(CCc1ccccc1O)N[C@@H](CS)Cc1ccccc1 | 58% |
| O=C(Cc1ccccc1)N[C@@H](CS)Cc1ccc(OCc2ccccc2)cc1 | 15% |
| O=C(N[C@@H](CS)Cc1ccccc1)c1nccc2ccccc12 | 36% |
| O=C(Cc1ccc(OCc2ccccc2)cc1)N[C@H](Cc1c[nH]c2ccccc12)C(=O)N1CCC[C@@H]1CS | > 20% |
| O=C(N[C@@H](CS)Cc1ccccc1)[C@@H]1CCCN1 | 0% |
| CC(C)C[C@H](CS)NC(=O)c1cccnc1 | 21% |
| O=C(Cc1ccccc1)N[C@@H](CS)Cc1ccccc1 | 58% |
| O=C(CCc1ccccc1)N[C@@H](CS)Cc1ccccc1 | 49% |

tested on: Endothelin-converting enzyme 1 (Sus scrofa); assay: Compound was evaluated for inhibition of Endothelin converting enzyme-1 partially purified from porcine primary aortic endothelial cells at 20 uM; conditions: Endothelial cell

| Compound | inhibition |
| --- | --- |
| O=C(Cc1ccccc1OCc1ccccc1)N[C@@H](CS)Cc1ccccc1 | 63% |
